Key:
[1] = test system: human umbilical vein endothelial cells (HUVECs); experiment: HUVEC proliferation ([3H]-thymidine incorporation); assay type: cell-based; conditions: inhibitor exposure for 3 hours, without EPO
Method: To investigate EPO-induced angiogenesis through mechanisms involving pro-angiogenic factors, the present inventor measured the proliferation of EPO-treated HUVECs in the presence of various pro-angiogenic factor inhibitors. To this end, HUVECs (2×10^5 cells/well) were cultured on fibronectin-coated 12-well plates in EBM-2. The cultured HUVECs were treated with or without 100 IU/ml EPO for 48 hours, and then exposed for 3 hours to (a) 0.25 mg/ml bevacizumab, (b) 100 nM of PD173074; an inhibitor of bFGF (Calbiochem, San Diego, Calif.), (c) 20 μM of tyrphostin AG 1296; a selective inhibitor of PDGF (Sigma), (d) a combination of bevacizumab, PD173074 and tyrphostin, and to (e) 100 nM wortmannin; a phosphatidylinositol 3-kinaz (PI 3-K) inhibitor (Sigma). Upon the completion of the experiment, the cells were washed with PBS and then incubated with 1 μCi/ml medium [^3H]-thymidine (NEN, Boston, Mass., USA) for 5 h at 37° C. Thereafter, 0.5 ml cold 10% Trichloroacetic acid (TCA) was added into each well for another 30 min at 4° C. To extract the ^3H-thymidine labeled DNA, 0.5 ml 1N NaOH was added to each well for 10 min at room temperature, and then 0.5 ml 1N HCl was added and mixed well. Samples of mixture solution (0.5 ml) was taken from each well and added to scintillation vials for the measurement of [^3H]-thymidine incorporation to DNA (cpm/mg protein). Duplicate cell counts were averaged for 3 experiments. Data were expressed as the percentage of control.

[2] = test system: human umbilical vein endothelial cells (HUVECs); experiment: In vitro tube formation of HUVECs on matrigel; assay type: cell-based
Method: The in vitro angiogenic potential of VEGF and EPO was measured by assessment of their ability to form tubes of endothelial cells on matrigel. To this end, human umbilical vein endothelial cells (HUVECs, LONZA, USA) were first cultured on fibronectin-coated 6-well plates in endothelial basal medium-2 (EBM-2, PromoCell, USA) until confluence and then the cells were treated with 0, 20 or 100 IU/ml EPO for 48 hours before their use in the assay (FIG. 7A). In a second experiment (FIG. 7B), HUVECs were exposed to 0, 100 IU/ml EPO or 200 ng/ml VEGF for 48 hours in EBM-2 with or without 0.25 mg/ml bevacizumab (Avastin®, Genentech, San Francisco, Calif., USA), a humanized monoclonal antibody that antagonizes the actions of VEGF. After 48 hours, the untreated HUVECs, the VEGF- and EPO-treated HUVECs, and the VEGF+bevacizumab- and EPO+bevacizumab-treated HUVECs were detached gently by 0.5% trypsin/EDTA, and then suspended in EBM-2. At the same time, frozen matrigel (Sigma Aldrich, St Louis Mo., USA) was thawed, and spread onto 96-well plates ([…]) at room temperature for 30 minutes to allow solidification. […] After 24 hours, the non-integrated cells were removed by washing and tube formation on the matrigel was assessed under a light microscope at 10× magnification. […]

[3] = test system: VEGF; experiment: Plasma VEGF concentration and fat graft VEGF content (ELISA); assay type: in vivo, CD-1 nude mice; conditions: VEGF-treated (200 ng/100 μl PBS) vs PBS-treated fat grafts; week 15
Method: (§1) The first study comprised 30 seven-week-old female CD-1 nude mice (Harlan, Jerusalem, Israel). These mice were housed in cages in a room with an artificial 12-h light/dark cycle at a constant temperature range (24±2° C.) and relative humidity (55±10%). The mice were acclimated for one week prior to the study, and fed a standard laboratory chow and water ad libitum. The 30 mice were randomly divided into three equal groups and treated as follows: Group 1 mice were injected with 1 ml of human fat and were treated with sterile PBS (control group). Group 2 mice were injected with 1 ml human fat and were treated with 1000 IU/kg EPO (low-dose EPO group). […]
The duration of the study period of both experiments was 15 weeks from the start of fat transplantation. […] VEGF and EPO concentrations were determined in homogenates of samples of the fat grafts using commercial enzyme-linked immunosorbent assays (Quantikine® VEGF immunoassay Kit and Quantikine® WD® Erythropoietin Kit, R&D Systems, MN, USA) in accordance with the manufacturer's instructions.
(§2) After 15 weeks, all mice were humanely killed and the fat grafts were carefully dissected from their scalps (FIG. 1C). Each fat graft was weighed and the volume of the fat graft was measured by the liquid overflow method as previously described [Ayhan et al. (2001) Aesthetic Plast Surg 25:338-342]. […]

[4] = test system: human fat grafts; experiment: Fat graft weight and volume 15 weeks after transplantation; assay type: in vivo, CD-1 nude mice; conditions: VEGF 200 ng/100 μl PBS every three days for 18 days; week 15; second experiment
Description: Fat was harvested from the thigh of a person by suction-assisted lipectomy under […] anesthesia. The fat was aspirated under local anesthesia using a 14-gauge blunt cannula, and then processed under sterile conditions for subsequent grafting into nude mice within two hours of its collection according to previously published protocols [Ullmann et al. (2005) Dermatol Surg 31:1304-7; Kurita et al. (2008) Plast Reconstr Surg 121:1033-1041].
as §1, §2

[5] = test system: human fat grafts; experiment: Histological analysis of the dissected fat grafts (grades 0 to 5); assay type: in vivo, CD-1 nude mice; conditions: grade on a scale of 0 to 5; VEGF 200 ng/100 μl PBS; week 15
Method: The first study comprised 30 seven-week-old female CD-1 nude mice (Harlan, Jerusalem, Israel). These mice were housed in cages in a room with an artificial 12-h light/dark cycle at a constant temperature range (24±2° C.) and relative humidity (55±10%). The mice were acclimated for one week prior to the study, and fed a standard laboratory chow and water ad libitum. The 30 mice were randomly divided into three equal groups and treated as follows: Group 1 mice were injected with 1 ml of human fat and were treated with sterile PBS (control group). Group 2 mice were injected with 1 ml human fat and were treated with 1000 IU/kg EPO (low-dose EPO group). Group 3 mice were injected with 1 ml human fat and were treated with 5000 IU/kg EPO (high-dose EPO group). The fat was injected subcutaneously into the scalp using a 14G needle while the animals were manually restrained. Immediately following fat transplantation, the PBS-treated fat grafts were injected with 100 μl PBS (control group), and the EPO-treated fat grafts were injected with either 20 IU EPO/100 μl PBS (low-dose EPO group) or 100 IU EPO/100 μl PBS (high-dose EPO group) every three days for 18 days (a total of 6 injections). EPO was purchased as an injection ampoule (ARANESP®, Amgen AG, Zug, Switzerland) which contained 150 μg/ml (18,000 IU) of EPO.
The second animal study comprised 20 seven-week-old female CD-1 nude mice, and differed from the first study in that the fat was treated with VEGF (2 μg/ml, Sigma Aldrich, Mo., USA) following implantation. 10 mice were injected with fat followed by 200 ng VEGF/100 μl PBS injections every three days for a total of 18 days. The remaining 10 mice made up a second control group that was treated in an identical manner to the control group in the first study. Post-operative analgesics and antibiotics were not administered to the mice in the two experiments.
(§3) Histological slides of the formalin-maintained samples were prepared and then stained with hematoxylin and eosin using standard procedures. Immunohistochemistry was performed using rabbit monoclonal antibodies against tissue CD31, VEGFR-2 and EPOR, and goat polyclonal IgG against VEGF (R&D Systems, Minneapolis Minn., USA), and CD68 (Dako, Glostrup, Denmark). The paraffin-embedded fat graft sections were incubated with the antibodies overnight at room temperature followed by incubation with appropriate secondary antibodies [Li et al. (2005) J Cell Biochem 95: 559-570]. Upon completion of the incubations, the specimens were counterstained with hematoxylin. Mouse IgG was used as a negative control. […]

[6] = test system: CD31-positive endothelial cells; experiment: Microvascular density (MVD, CD31) in fat grafts; assay type: in vivo, CD-1 nude mice
Method: Quantification of macrophage infiltration in the fat grafts was estimated by counting the number of CD68-positive cells in five fields per fat graft in all fat graft sections. Microvascular density (MVD) in fat grafts was determined in five regions of interest where the CD31 antibody signal was the most intense in each section in all of the fat graft sections. The number of macrophages and blood vessels in each region was counted under a light microscope at 400× magnification. The assessment in each fat graft was made by calculating the mean result in two different sections per fat graft and five different fields of view per section.
The paraffin-embedded fat graft sections were incubated overnight at room temperature with a monoclonal antibody against tissue CD31 (R&D Systems, Minneapolis Minn., USA) as previously described [Li et al. (2005) J Cell Biochem 95:559-570]. Upon completion of the incubation, the specimens were counterstained with hematoxylin. Mouse IgG was used as a negative control. The microvascular density (MVD) was determined in five regions of interest where the CD31 antibody signal was most intense. The number of blood vessels in each region was counted under a light microscope at […] magnification.

[7] = test system: bFGF, IGF-1, PDGF-BB, VEGFR-2, EPOR, MMP-2, PKB, phosphoPKB, caspase 3, cytochrome c; experiment: Expression of angiogenic, survival and pro-apoptotic factors in fat grafts (Western blotting, immunohistochemistry); assay type: in vivo, CD-1 nude mice; conditions: VEGF-treated vs PBS-treated fat grafts, Western blot; week 15
Method: as §3
The expression levels of the angiogenic factors, bFGF, IGF-1, PDGF-BB VEGFR-2, EPOR and MMP-2, the cell survival factor PKB and phosphorylated PKB, and the pro-apoptotic factors caspase 3 and cytochrome c were determined in homogenates of the harvested fats grafts by Western blotting. […] The resultant bands were quantified by densitometry.

[8] = test system: human fat grafts; experiment: Extent of apoptosis in fat grafts (TUNEL assay); assay type: in vivo, CD-1 nude mice; conditions: VEGF-treated (200 ng/100 μl PBS) vs PBS-treated fat grafts; week 15
Method: The extent of apoptosis in all fat grafts was assessed by the terminal deoxyuridine triphosphate nick end labeling (TUNEL) assay using a commercial kit (ApopTag® Plus Fluorescein Kit, CHEMICON, CA, USA), in accordance with the manufacturer's instructions. Duplicates were carried out for each sample and were processed by fluorescence-activated cell sorting (FACS, Becton Dickinson, N.J., USA). Data was analyzed using the Macintosh CELLQuest software program (Becton Dickinson).

`CCN(CC)CCCCNc1ncc2cc(-c3cc(OC)cc(OC)c3)c(NC(=O)NC(C)(C)C)nc2n1` [PD173074] was tested, and the HUVEC proliferation [1] was “reduced HUVEC proliferation significantly”.
bevacizumab [reference compound] was tested, and the HUVEC tube formation ([2]; 0.25 mg/ml bevacizumab in VEGF-treated HUVECs) was “substantially reduced” and the HUVEC proliferation [1] was “reduced HUVEC proliferation significantly”.
With tyrphostin AG 1296 the HUVEC proliferation [1] was “reduced HUVEC proliferation significantly”.
For “vascular endothelial growth factor [VEGF]”, the “VEGF content in fat grafts” value [3] was “higher than, but not statistically different from”, the “fat graft Volume” value [4] was 0.36 ± 0.2 mL and the “fat graft Weight” value [4] was 0.35 ± 0.2 g. It also gave a Cyst/Vacuoles [5] of 3.3 ± 1.0, a Fibrosis [5] of 2.9 ± 0.7 and an Inflammation [5] of 4.0 ± 1.2. The Integration [5] was 3.2 ± 0.9, the “microvascular density (MVD)” value ([6]; VEGF-treated (200 ng/100 μl PBS) vs PBS-treated fat grafts, week 15) was “higher than, but not statistically different from” and the “vessel morphology in fat grafts” value ([6]; VEGF-treated fat grafts (data not shown)) was “unorganized vessel formation and perivascular hemorrhage”. For the same compound, the “expression levels of caspase 3 and cytochrome c” value [7] was “no statistical differences”, the “extent of apoptosis (TUNEL)” value [8] was “greater than that in the PBS-treated fat grafts” and the HUVEC tube formation ([2]; 200 ng/ml VEGF, without bevacizumab (FIG. 7B)) was “significantly enhanced”.
